According to US7531646B2, “β-D-ribosidase activity indicators with a chromogenic substrate” (priority 2001, dated 2009):
Counter-ions that a name gives are not always drawn.

Key:
Format in all cases: cell-based
Salmonella hadar = experiment: Substrate hydrolysis on Columbia agar; settings: Salmonella hadar SAX 57; 300 mg/l; 18 hours
Streptococcus oralis = experiment: Substrate hydrolysis on Columbia agar; settings: Streptococcus oralis NCTC11427; 300 mg/l; 18 hours
P. mirabilis = experiment: Substrate hydrolysis on Columbia agar; settings: 300 mg/l, 18 hours
Gram negative bacteria = experiment: Substrate hydrolysis on Columbia agar, summary of screen
Aeromonas sobria = experiment: Substrate hydrolysis on Columbia agar; settings: Aeromonas sobria NCTC 11215; 300 mg/l; 18 hours
Enterococcus casseflavus = experiment: Substrate hydrolysis on Columbia agar; settings: Enterococcus casseflavus NCTC 12361; 300 mg/l; 18 hours
E. aerogenes = experiment: Substrate hydrolysis on Columbia agar; settings: 300 mg/l, 18 hours
[1] = system: Staphylococcus saprophyticus; experiment: Substrate hydrolysis on Columbia agar; settings: 300 mg/l, 18 hours
Streptococcus agalactiae = experiment: Substrate hydrolysis on Columbia agar; settings: Streptococcus agalactiae NCTC 8181; 300 mg/l; 18 hours
[2] = system: Arcanobacterium haemolyticus; experiment: Substrate hydrolysis on Columbia agar; settings: Arcanobacterium haemolyticus NCTC 52; 300 mg/l; 18 hours
[3] = system: Haemolytic streptococcus A; experiment: Substrate hydrolysis on Columbia agar; settings: 300 mg/l, 18 hours
E. coli = experiment: Substrate hydrolysis on Columbia agar; settings: 300 mg/l, 18 hours
Streptococcus milleri = experiment: Substrate hydrolysis on Columbia agar; settings: Streptococcus milleri wild; 300 mg/l; 18 hours
M. morganii = experiment: Substrate hydrolysis on Columbia agar; settings: 300 mg/l, 18 hours
[4] = system: Staphylococcus epidermidis; experiment: Substrate hydrolysis on Columbia agar; settings: 300 mg/l, 18 hours
Vibrio fluvialis = experiment: Substrate hydrolysis on Columbia agar; set-up: key to the marks not given beside the values; settings: Vibrio fluvialis NCTC 11327; 300 mg/l; 18 hours
P. rettgeri = experiment: Substrate hydrolysis on Columbia agar; settings: P. rettgeri NCTC 7475; 300 mg/l; 18 hours
E. coli 0157 = experiment: Substrate hydrolysis on Columbia agar; settings: 300 mg/l, 18 hours
Shigella boydii = experiment: Substrate hydrolysis on Columbia agar; settings: 300 mg/l, 18 hours
Source text: (§1) This was achieved using a densitometer.
(§2) The same method was used as in Example 1.

Shigella flexneri = experiment: Substrate hydrolysis on Columbia agar; settings: 300 mg/l, 18 hours
Source text: as §1, §2

Salmonella alachia = experiment: Substrate hydrolysis on Columbia agar; settings: Salmonella alachia SAX 60; 300 mg/l; 18 hours
Source text: as §1, §2

Salmonella motevideo = experiment: Substrate hydrolysis on Columbia agar; settings: Salmonella motevideo SAX 55; 300 mg/l; 18 hours
Source text: as §1, §2

Enterococcus raffinosis = experiment: Substrate hydrolysis on Columbia agar; settings: Enterococcus raffinosis NCTC 13192; 300 mg/l; 18 hours
Providencia stuartii = experiment: Substrate hydrolysis on Columbia agar; settings: 300 mg/l, 18 hours
[5] = system: Haemolytic streptococcus B; experiment: Substrate hydrolysis on Columbia agar; settings: 300 mg/l, 18 hours
Vibrio anguillarum = experiment: Substrate hydrolysis on Columbia agar; settings: Vibrio anguillarum NCTC 12159; 300 mg/l; 18 hours
Aeromonas hydrophila = experiment: Substrate hydrolysis on Columbia agar; set-up: key to the marks not given beside the values; settings: Aeromonas hydrophila NCTC 8049; 300 mg/l; 18 hours
Enterococcus faecium = experiment: Substrate hydrolysis on Columbia agar; settings: 300 mg/l, 18 hours
Bacillus cereus = experiment: Substrate hydrolysis on Columbia agar; settings: Bacillus cereus NCTC; 300 mg/l; 18 hours

Structure (SMILES): O=c1cc(-c2ccc(OC3OC(CO)C(O)C3O)c(O)c2)oc2ccccc12 [DHF-riboside, 3′,4′-dihydroxyflavone-4′-β-D-ribofuranoside Sodium Salt]
- Hydrolysis by Gram negative bacteria (Salmonella hadar): ++
- Hydrolysis by Gram positive organisms (Streptococcus oralis): −
- Hydrolysis by Gram negative bacteria (P. mirabilis; P. mirabilis NCTC 10975): −
- Hydrolysis by Gram negative bacteria (P. mirabilis; P. mirabilis PMI 1): −
- Hydrolysis by Gram negative bacteria (P. mirabilis; P. mirabilis PMI 2): −
- Gram negative bacteria tested that hydrolysed the substrate (Gram negative bacteria; of 120 Gram negative bacteria tested, 300 mg/l, 18 hours): 68.3%
- colouration and diffusion of positive strains (Gram negative bacteria; positive Gram negative strains, agar): clearly visible black chelate which remained restricted to bacterial colonies without diffusion into the surrounding agar
- Hydrolysis by Gram negative bacteria (Aeromonas sobria): 0
- Hydrolysis by Gram positive organisms (Enterococcus casseflavus): −
- Hydrolysis by Gram negative bacteria (E. aerogenes; E. aerogenes EAE 1): ++
- Hydrolysis by Gram negative bacteria (E. aerogenes; E. aerogenes NCIMB 10102): ++
- Hydrolysis by Gram positive organisms ([1]; Staphylococcus saprophyticus 1): ++
- Hydrolysis by Gram positive organisms ([1]; Staphylococcus saprophyticus 2): ++
- Hydrolysis by Gram positive organisms ([1]; Staphylococcus saprophyticus 3): ++
- Hydrolysis by Gram positive organisms ([1]; Staphylococcus saprophyticus 4): ++
- Hydrolysis by Gram positive organisms ([1]; Staphylococcus saprophyticus 5): ++
- Hydrolysis by Gram positive organisms (Streptococcus agalactiae): −
- Hydrolysis by Gram positive organisms [2]: +
- Hydrolysis by Gram positive organisms ([3]; Haemolytic streptococcus A 1): −
- Hydrolysis by Gram positive organisms ([3]; Haemolytic streptococcus A 2): −
- Hydrolysis by Gram positive organisms ([3]; Haemolytic streptococcus A 3): −
- Hydrolysis by Gram negative bacteria (E. coli; E. coli ECO 2): ++
- Hydrolysis by Gram negative bacteria (E. coli; E. coli ECO 3): ++
- Hydrolysis by Gram negative bacteria (E. coli; E. coli ECO 4): ++
- Hydrolysis by Gram negative bacteria (E. coli; E. coli ECO 5): ++
- Hydrolysis by Gram negative bacteria (E. coli; E. coli ECO 6): ++
- Hydrolysis by Gram negative bacteria (E. coli; E. coli ECO 7): ++
- Hydrolysis by Gram negative bacteria (E. coli; E. coli ECO 8): ++
- Hydrolysis by Gram negative bacteria (E. coli; E. coli ECO 9): ++
- Hydrolysis by Gram negative bacteria (E. coli; E. coli ECO 10): ++
- Hydrolysis by Gram negative bacteria (E. coli; E. coli ECO 11): ++
- Hydrolysis by Gram negative bacteria (E. coli; E. coli ECO 12): ++
- Hydrolysis by Gram negative bacteria (E. coli; E. coli NCTC 10418): ++
- Hydrolysis by Gram positive organisms (Streptococcus milleri): −
- Hydrolysis by Gram negative bacteria (M. morganii; M. morganii MMO 1): +
- Hydrolysis by Gram negative bacteria (M. morganii; M. morganii MMO 2): +
- Hydrolysis by Gram negative bacteria (M. morganii; M. morganii NCTC 235): −
- Hydrolysis by Gram positive organisms ([4]; Staphylococcus epidermidis RB60): ++
- Hydrolysis by Gram positive organisms ([4]; Staphylococcus epidermidis RB62): +
- Hydrolysis by Gram positive organisms ([4]; Staphylococcus epidermidis RB63): +
- Hydrolysis by Gram positive organisms ([4]; Staphylococcus epidermidis RB64): +
- Hydrolysis by Gram positive organisms ([4]; Staphylococcus epidermidis RB65): +
- Hydrolysis by Gram negative bacteria (Vibrio fluvialis): ++
- Hydrolysis by Gram negative bacteria (P. rettgeri): +
- Hydrolysis by Gram negative bacteria (E. coli 0157; E. coli 0157 NCTC 12079): ++
- Hydrolysis by Gram negative bacteria (E. coli 0157; E. coli 0157 NCTC 12080): ++
- Hydrolysis by Gram negative bacteria (E. coli 0157; E. coli 0157 NCTC 12900): ++
- Hydrolysis by Gram negative bacteria (E. coli 0157; E. coli 0157 NCTC 13125): ++
- Hydrolysis by Gram negative bacteria (E. coli 0157; E. coli 0157 NCTC 13126): ++
- Hydrolysis by Gram negative bacteria (E. coli 0157; E. coli 0157 NCTC 13127): ++
- Hydrolysis by Gram negative bacteria (E. coli 0157; E. coli 0157 NCTC 13128): ++
- Hydrolysis by Gram negative bacteria (Shigella boydii; Shigella boydii NCTC 9327): ++
- Hydrolysis by Gram negative bacteria (Shigella boydii; Shigella boydii NCTC 9732): ++
- Hydrolysis by Gram negative bacteria (Shigella boydii; Shigella boydii NCTC 9850): ++
- Hydrolysis by Gram negative bacteria (Shigella flexneri; Shigella flexneri NCTC 8192): ++
- Hydrolysis by Gram negative bacteria (Shigella flexneri; Shigella flexneri NCTC 9723): ++
- Hydrolysis by Gram negative bacteria (Shigella flexneri; Shigella flexneri NCTC 9780): ++
- Hydrolysis by Gram negative bacteria (Salmonella alachia): ++
- Hydrolysis by Gram negative bacteria (Salmonella motevideo): ++
- Hydrolysis by Gram positive organisms (Enterococcus raffinosis): +
- Hydrolysis by Gram negative bacteria (Providencia stuartii; Providencia stuartii PST 1): +
- Hydrolysis by Gram negative bacteria (Providencia stuartii; Providencia stuartii PST 2): +
- Hydrolysis by Gram positive organisms ([5]; Haemolytic streptococcus B 1): −
- Hydrolysis by Gram positive organisms ([5]; Haemolytic streptococcus B 2): −
- Hydrolysis by Gram positive organisms ([5]; Haemolytic streptococcus B 3): −
- Hydrolysis by Gram negative bacteria (Vibrio anguillarum): −
- Hydrolysis by Gram negative bacteria (Aeromonas hydrophila): ++
- Hydrolysis by Gram positive organisms (Enterococcus faecium; Enterococcus faecium 1): −
- Hydrolysis by Gram positive organisms (Enterococcus faecium; Enterococcus faecium 2): −
- Hydrolysis by Gram positive organisms (Enterococcus faecium; Enterococcus faecium 3): −
- Hydrolysis by Gram positive organisms (Enterococcus faecium; Enterococcus faecium 4): +
- Hydrolysis by Gram positive organisms (Enterococcus faecium; Enterococcus faecium 5): −
- Hydrolysis by Gram positive organisms (Enterococcus faecium; Enterococcus faecium 6): +
- Hydrolysis by Gram positive organisms (Enterococcus faecium; Enterococcus faecium 7): −
- Hydrolysis by Gram positive organisms (Enterococcus faecium; Enterococcus faecium 121285 - wild ′99): −
- Hydrolysis by Gram positive organisms (Bacillus cereus): −
